Results from PubChem BioAssay (NCI).
Where “and” joins values, the source holds several entries; their conditions need not be identical. Equal entries are not always repeated.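 These data come from cells grown in 96-well plates and exposed to compound for 48 hours at five concentrations. GI50 = concentration required for 50% inhibition of growth. At the TGI there is no net growth.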 *1 amine or outer side, *2 acyl side, *3 side chain or, on linkers, in order; H or OH if unused. Where a SMILES comes first, the peptide text is derived from it. [ ]: non-standard residue; d: D form. The star is where a group is joined. ξ: configuration not given here. X15 = CCN(CC)c1ccc2cc(N*)c(=O)oc2c1; dIva = CC[C@@](C)(N)C(=O)O; X14 = O=C(OCCN[*:1])[*:2]; Aib = CC(C)(N)C(=O)O; ξP = O=C(O)C1CCCN1; βAla = NCCC(=O)O

Legend:
Assay in all cases: DTP human tumour cell line panel, 48 h
MCF7 breast = test system: MCF7 breast
HCT-116 colon = test system: HCT-116 colon
UACC-257 melanoma = test system: UACC-257 melanoma
RXF 393 renal = test system: RXF 393 renal
HL-60(TB) leukemia = test system: HL-60(TB) leukemia
OVCAR-4 ovarian = test system: OVCAR-4 ovarian
RPMI-8226 leukemia = test system: RPMI-8226 leukemia
A498 renal = test system: A498 renal
SF-539 CNS = test system: SF-539 CNS
SNB-75 CNS = test system: SNB-75 CNS

SMILES	GI50 (MCF7 breast) [µM]	TGI (MCF7 breast) [µM]	GI50 (HCT-116 colon) [µM]	TGI (HCT-116 colon) [µM]	GI50 (UACC-257 melanoma) [µM]	TGI (UACC-257 melanoma)	GI50 (RXF 393 renal) [µM]	TGI (RXF 393 renal)	GI50 (HL-60(TB) leukemia) [µM]	TGI (HL-60(TB) leukemia)	GI50 (OVCAR-4 ovarian) [µM]	TGI (OVCAR-4 ovarian) [µM]	GI50 (RPMI-8226 leukemia) [µM]	TGI (RPMI-8226 leukemia)	GI50 (A498 renal) [µM]	TGI (A498 renal)	GI50 (SF-539 CNS) [µM]	GI50 (SNB-75 CNS)	TGI (SNB-75 CNS)	TGI (SF-539 CNS)
CCN1C(=O)N(CC)C2C1NN=c1s/c(=C\c3cc4ccccc4[nH]3)c(=O)n12 (stereo not given)	< 0.01	14.6	< 0.01	> 37.2	12.2	> 100 µM	< 0.0187	11.6 µM	< 0.0117	< 0.0191 µM	< 0.0162	> 100	< 0.0185	2.19 µM	0.0108	0.0628 µM	< 0.01	< 0.0149 µM	0.641 µM	
COc1ccc(/C=C2\CCC(CN(C)C)C2=O)cc1OC (stereo not given)		8.51		7.01		17 µM		5.16 µM		8.62 µM		18.4		5.95 µM		27.8 µM			30.5 µM	25 µM
CCN(CC)c1ccc2cc(NC(=O)OCCNC(=O)CCNC(=O)[C@H](CC(C)C)NC(=O)C(C)(C)NC(=O)C(C)(C)NC(=O)[C@H](CC(C)C)NC(=O)CCNC(=O)C(C)(C)NC(=O)[C@H](CC(C)C)NC(=O)CCNC(=O)[C@@](C)(CC)NC(=O)[C@H](C)NC(=O)CCNC(=O)C(C)(C)NC(=O)[C@H](C)NC(=O)[C@@H]3CCCN3C(=O)[C@@](C)(CC)NC(=O)[C@H](Cc3ccccc3)NC(=O)C3CCCN3C(=O)C(C)(C)NC(=O)C3CCCN3C(=O)C(C)(C)NC(C)=O)c(=O)oc2c1 (stereo not given in full) (Ac-[Aib][ξP][Aib][ξP]F[dIva]PA[Aib][βAla]A[dIva][βAla]L[Aib][βAla]L[Aib][Aib]L[βAla][X14]-X15)	0.00313	0.0286	0.0035	0.0455	0.00222	0.0065 µM	0.0049	0.0173 µM	0.00316	0.011 µM	0.00347	0.0439			0.00291	0.0265 µM	0.00491	0.00254 µM	0.0242 µM	0.0202 µM
Nc1nc(N)c(N=O)c(OCC2CCCCC2)n1	3.46	> 100		> 100	17.2	> 100 µM and 38.9 µM	8.04	42.3 µM and 48.1 µM	10.7	53.8 µM and 58.9 µM	6.03	> 75.5	9.17	98.7 µM and 36.1 µM		43 µM and 50.2 µM	15.6		42.3 µM and 50.2 µM	56.1 µM and 36.5 µM
FC(F)(F)c1ccc(-c2cnc(Cl)nc2NCc2cc(C(F)(F)F)cc(C(F)(F)F)c2)cc1	2.65	> 100	3.32	> 100	2.18	7.28 µM	3.15	> 100 µM	2.6	6.73 µM	2.94	> 100	3.08	> 100 µM	1.97	6.87 µM	3.78	1.7 µM	> 100 µM	> 100 µM
COc1cc2c3c(n(C)c(=O)c2cc1OC)-c1cc2c(cc1/C3=C\C(N)CN)OCO2 (stereo not given)	0.51	7	1.16	2.44	6.38	41.4 µM	0.666	3.38 µM	8.69	> 100 µM	5.44	> 100	6.43	26.1 µM	1.37	9.77 µM	1.39	3.6 µM	> 31.3 µM	4.49 µM
OCC1OC(n2cnc3c(=S)nc[nH]c32)C(O)C1O (stereo not given)	1.82	> 2500	2.78	> 2500	> 100	> 2500 µM	> 100	> 2500 µM	3.82	> 2210 µM	4.05	> 2500	2.57	> 2500 µM	19.8	> 2380 µM	3.3	34.1 µM	> 2500 µM	> 2500 µM
CCCOc1nc(SCCC)nc2c1cnn2-c1ccccc1	> 100	> 100	55.3	> 100	> 100	> 100 µM	78.9	> 100 µM	38	> 100 µM	> 100	> 100	70.9	> 100 µM	> 100	> 100 µM	> 100	> 100 µM	> 100 µM	> 100 µM
c1ccc(P(CCP(CCP(c2ccccc2)c2ccccc2)c2ccccc2)CCP(c2ccccc2)c2ccccc2)cc1 (stereo not given)		3.04		> 10		> 10 µM		> 10 µM		3.69 µM		> 10		> 10 µM		> 10 µM		4.55 µM and 1.91 µM	> 10 µM	> 10 µM and 9.84 µM
CCCCN(CCCC)c1ccc(C(=NC(C)CCCN(CC)CC)c2ccc(N(C)C)cc2)cc1 (stereo not given)	0.836	1.95	0.537	1.27	0.915	1.83 µM	0.73	1.46 µM	1.01	2.03 µM	1.09	3.34	0.95	2.19 µM	0.789	2.39 µM	0.899	0.734 µM	1.56 µM	1.72 µM
Nc1ccc(-c2ccc(N)cc2I)c(I)c1	18.4	58.1	15.2	32	21.5	53.8 µM	10.9	28 µM	18.4	47.6 µM	17.5	> 100	14	37.7 µM	10.7	24.1 µM	14.5	10.8 µM	73.8 µM	32.2 µM
S=C(Nc1cc(Cl)c(Cl)cc1Cl)SCc1ccccc1		> 100		83		37.6 µM		> 100 µM		50.4 µM		65.3		46.5 µM		82.5 µM			> 100 µM	48.3 µM
O=C(OCCBr)c1ccc(Cl)c([N+](=O)[O-])c1	2.51	7.5	14.3	30.4	9.02	22.9 µM	15.5	29.9 µM	15.7	42.6 µM	10.2	23	7.09	19 µM	17.7	42.4 µM	19.6	5.63 µM	12.2 µM	36 µM
